# Test results: patent US10144706B2 (BRISTOL-MYERS SQUIBB COMPANY, priority 2016, dated 2018)
# Like-named read-outs stand apart in the source and are kept apart here.
# Target: T1, PD-1/PD-L1 interaction (PD-1-Ig / PD-L1-His) (Homo sapiens, UniProt Q9NZQ7)
# T1 construct: hPDL1(18-239)-TVMV-His; TVMV protease site linker (C); made in house; host or cells: HEK293T
# Assay: PD-1/PD-L1 Homogenous Time-Resolved Fluorescence (HTRF) binding assay
# Settings: PD-L1-His 10 nM, PD-1-Ig 20 nM, read-out: Range or IC50
# Outline: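 Human PD-L1-His (10 nM final) was pre-incubated with inhibitor for 15 min, then PD-1-Ig (20 nM final) was added for a further 15 min in dPBS with 0.1% BSA and 0.05% Tween-20. Binding was detected by HTRF using Eu-cryptate anti-Ig (1 nM) and APC anti-His (20 nM).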
# T1 sequence (Q9NZQ7 with tags, fused parts or gaps): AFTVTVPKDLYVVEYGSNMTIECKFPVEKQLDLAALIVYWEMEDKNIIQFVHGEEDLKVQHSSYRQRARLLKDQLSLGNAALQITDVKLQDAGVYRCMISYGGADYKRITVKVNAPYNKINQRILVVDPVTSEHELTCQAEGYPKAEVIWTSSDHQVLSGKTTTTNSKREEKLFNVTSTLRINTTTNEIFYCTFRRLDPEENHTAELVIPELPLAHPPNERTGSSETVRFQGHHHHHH
Structure (SMILES),IC50 (IC50 range class) [nM],IC50 (numeric IC50) [nM]
CC(=O)c1cc(Cl)c(OCc2cccc(-c3cccc(COc4cc(OCc5cncc(C#N)c5)c(CN[C@@](C)(CO)C(=O)O)cc4Cl)c3Cl)c2Cl)cc1OCc1cncc(C#N)c1 [Example 60080],0.04 to 20,
CC(=O)c1cc(Cl)c(OCc2cccc(-c3cccc(COc4cc(OCc5cncc(C#N)c5)c(CN[C@@H](C(=O)O)[C@H](C)O)cc4Cl)c3C)c2C)cc1OCc1cncc(C#N)c1 [Example 60090],20.1 to 90,
Cc1c(COc2cc(OCc3cncc(C#N)c3)c(Cl)cc2Cl)cccc1-c1cccc(COc2cc(OCc3cncc(C#N)c3)c(CN[C@H](C(=O)O)[C@@H](C)O)cc2Cl)c1C [Example 70010],90.1 to 1000,
Cc1c(COc2cc(OCc3cncc(C#N)c3)c(Cl)cc2Cl)cccc1-c1cccc(COc2cc(OCc3cncc(C#N)c3)c(CN[C@](C)(CO)C(=O)O)cc2Cl)c1C [Example 70020],0.04 to 20,
Cc1c(COc2cc(OCc3cncc(C#N)c3)c(Cl)cc2Cl)cccc1-c1cccc(COc2cc(OCc3cncc(C#N)c3)c(CNC(C)(CO)C(=O)O)cc2Cl)c1C (centres unmarked) [Example 70030],20.1 to 90,
Cc1c(COc2cc(OCc3cncc(C#N)c3)c(Cl)cc2Cl)cccc1-c1cccc(COc2cc(OCc3cncc(C#N)c3)c(CN[C@@H](C(=O)O)[C@H](C)O)cc2Cl)c1C [Example 70040],,1050
Cc1c(COc2cc(OCc3cncc(C#N)c3)c(Cl)cc2Cl)cccc1-c1cccc(COc2cc(OCc3cncc(C#N)c3)c(CN[C@H](C(=O)O)[C@@H](C)[C@H](C)O)cc2Cl)c1C [Example 70050],90.1 to 1000,
Cc1c(COc2cc(OCc3cncc(C#N)c3)c(Cl)cc2Cl)cccc1-c1cccc(COc2cc(OCc3cncc(C#N)c3)c(CN[C@@](C)(CO)C(=O)O)cc2Cl)c1C [Example 70060],20.1 to 90,
N#Cc1cncc(COc2cc(OCc3cccc(-c4cccc(COc5cc(OCc6cncc(C#N)c6)c(C(=O)N6CCC(=O)CC6)cc5Cl)c4Cl)c3Cl)c(Cl)cc2C(=O)N2CCC(=O)CC2)c1 [Example 80010],20.1 to 90,
N#Cc1cncc(COc2cc(OCc3cccc(-c4cccc(COc5cc(OCc6cncc(C#N)c6)c(C(=O)NCCCO)cc5Cl)c4Cl)c3Cl)c(Cl)cc2C(=O)NCCCO)c1 [Example 80020],90.1 to 1000,
CN1CCN(C(=O)c2cc(Cl)c(OCc3cccc(-c4cccc(COc5cc(OCc6cncc(C#N)c6)c(C(=O)N6CCN(C)CC6)cc5Cl)c4Cl)c3Cl)cc2OCc2cncc(C#N)c2)CC1 [Example 80030],0.04 to 20,
N#Cc1cncc(COc2cc(OCc3cccc(-c4cccc(COc5cc(OCc6cncc(C#N)c6)c(C(=O)N6CCCC(O)C6)cc5Cl)c4Cl)c3Cl)c(Cl)cc2C(=O)N2CCCC(O)C2)c1 (centres unmarked) [Example 80040],20.1 to 90,
N#Cc1cncc(COc2cc(OCc3cccc(-c4cccc(COc5cc(OCc6cncc(C#N)c6)c(C(=O)N6CCOCC6)cc5Cl)c4Cl)c3Cl)c(Cl)cc2C(=O)N2CCOCC2)c1 [Example 80050],20.1 to 90,
N#Cc1cncc(COc2cc(OCc3cccc(-c4cccc(COc5cc(OCc6cncc(C#N)c6)c(C(=O)N6CCC(O)CC6)cc5Cl)c4Cl)c3Cl)c(Cl)cc2C(=O)N2CCC(O)CC2)c1 [Example 80060],0.04 to 20,
Cc1c(COc2cc(OCc3cncc(C#N)c3)c(C(=O)NCc3ccncn3)cc2Cl)cccc1-c1cccc(COc2cc(OCc3cncc(C#N)c3)c(C(=O)NCc3ccncn3)cc2Cl)c1C [Example 80090],90.1 to 1000,
Cc1c(COc2cc(OCc3cncc(C#N)c3)c(C(=O)N3CCOCC3)cc2Cl)cccc1-c1cccc(COc2cc(OCc3cncc(C#N)c3)c(C(=O)N3CCOCC3)cc2Cl)c1C [Example 80100],0.04 to 20,
CC1CCN(C(=O)c2cc(Cl)c(OCc3cccc(-c4cccc(COc5cc(OCc6cncc(C#N)c6)c(C(=O)N6CCC(C)CC6)cc5Cl)c4Cl)c3Cl)cc2OCc2cncc(C#N)c2)CC1 [Example 80120],,105
N#Cc1cncc(COc2cc(OCc3cccc(-c4cccc(COc5cc(OCc6cncc(C#N)c6)c(C(=O)N6CCS(=O)(=O)CC6)cc5Cl)c4Cl)c3Cl)c(Cl)cc2C(=O)N2CCS(=O)(=O)CC2)c1 [Example 80140],0.04 to 20,
N#Cc1cncc(COc2cc(OCc3cccc(-c4cccc(COc5cc(OCc6cncc(C#N)c6)c(C(=O)NCC6(CO)CC6)cc5Cl)c4Cl)c3Cl)c(Cl)cc2C(=O)NCC2(CO)CC2)c1 [Example 80160],1000 to 10000,
N#Cc1cncc(COc2cc(OCc3cccc(-c4cccc(COc5cc(OCc6cncc(C#N)c6)c(C(=O)NC6COC6)cc5Cl)c4Cl)c3Cl)c(Cl)cc2C(=O)NC2COC2)c1 [Example 80180],1000 to 10000,
N#Cc1cncc(COc2cc(OCc3cccc(-c4cccc(COc5cc(OCc6cncc(C#N)c6)c(C(=O)NCCO)cc5Cl)c4Cl)c3Cl)c(Cl)cc2C(=O)NCCO)c1 [Example 80200],90.1 to 1000,
N#Cc1cncc(COc2cc(OCc3cccc(-c4cccc(COc5cc(OCc6cncc(C#N)c6)c(C(=O)N6CCSCC6)cc5Cl)c4Cl)c3Cl)c(Cl)cc2C(=O)N2CCSCC2)c1 [Example 80220],1000 to 10000,
Cc1c(COc2cc(OCc3cncc(C#N)c3)c(C(=O)N3CCC(=O)CC3)cc2Cl)cccc1-c1cccc(COc2cc(OCc3cncc(C#N)c3)c(C(=O)N3CCC(=O)CC3)cc2Cl)c1C [Example 80230],20.1 to 90,
N#Cc1cncc(COc2cc(OCc3cccc(-c4cccc(COc5cc(OCc6cncc(C#N)c6)c(C(=O)NCCO)cc5Cl)c4Cl)c3Cl)c(Cl)cc2C(=O)O)c1 [Example 90010],0.04 to 20,
N#Cc1cncc(COc2cc(OCc3cccc(-c4cccc(COc5cc(OCc6cncc(C#N)c6)c(C(=O)NC6CC6)cc5Cl)c4Cl)c3Cl)c(Cl)cc2C(=O)O)c1 [Example 90020],20.1 to 90,
N#Cc1cncc(COc2cc(OCc3cccc(-c4cccc(COc5cc(OCc6cncc(C#N)c6)c(C(=O)NCCCO)cc5Cl)c4Cl)c3Cl)c(Cl)cc2C(=O)O)c1 [Example 90030],20.1 to 90,
N#Cc1cncc(COc2cc(OCc3cccc(-c4cccc(COc5cc(OCc6cncc(C#N)c6)c(C(=O)NCC6(CO)CC6)cc5Cl)c4Cl)c3Cl)c(Cl)cc2C(=O)O)c1 [Example 90040],90.1 to 1000,
N#Cc1cncc(COc2cc(OCc3cccc(-c4cccc(COc5cc(OCc6cncc(C#N)c6)c(C(=O)NC6COC6)cc5Cl)c4Cl)c3Cl)c(Cl)cc2C(=O)O)c1 [Example 90050],90.1 to 1000,
N#Cc1cncc(COc2cc(OCc3cccc(-c4cccc(COc5cc(OCc6cncc(C#N)c6)c(C(=O)NCC6CCCO6)cc5Cl)c4Cl)c3Cl)c(Cl)cc2C(=O)O)c1 (centres unmarked) [Example 90060],1000 to 10000,
